Measurements: US20240293362A1, “Soluble Epoxide Hydrolase Inhibitors and Use Thereof” (Board of Trustees of Michigan State University, priority 2021, published 2024)

Row | SMILES | melting point
1 | CCC(=O)NCC1CCN(C(=O)Nc2ccc(OC(F)(F)F)cc2)C1 (stereo not drawn) [Example 12, 3-(propanamidomethyl)-N-[4-(trifluoromethoxy)phenyl]pyrrolidine-1-carboxamide] | 166 to 167 °C
2 | CCC(=O)N1CCC(NC(=O)Nc2ccc(OC(F)(F)F)cc2)C(F)(F)C1 (stereo not drawn) [Example 44, 1-(3,3-difluoro-1-propionylpiperidin-4-yl)-3-(4-(trifluoromethoxy)phenyl)urea] | 223 to 224 °C
3 | CCC(=O)N1CC[C@H](NC(=O)Nc2ccc(OC(F)(F)F)cc2)C[C@H]1C [Example 48, 1-((2R,4S)-2-methyl-1-propionylpiperidin-4-yl)-3-(4-(trifluoromethoxy)phenyl)urea] | 175 to 176 °C

Further lines, results first:

Row | melting point | SMILES
4 | 231 to 232 °C | CCC(=O)N1CC[C@@H](NC(=O)Nc2ccc(OC(F)(F)F)cc2)[C@@H](F)C1 [Example 45, 1-((3S,4R)-3-fluoro-1-propionylpiperidin-4-yl)-3-(4-(trifluoromethoxy)phenyl)urea]
5 | 245 to 246 °C | CCC(=O)N1CC[C@H](NC(=O)Nc2ccc(OC(F)(F)F)cc2)[C@H](F)C1 [Example 46, 1-((3R,4S)-3-fluoro-1-propionylpiperidin-4-yl)-3-(4-(trifluoromethoxy)phenyl)urea]
6 | 180 to 181 °C | CCC(=O)N1CC[C@H](NC(=O)Nc2ccc(OC(F)(F)F)cc2)[C@@H](F)C1 [Example 47, 1-((3S,4S)-3-fluoro-1-propionylpiperidin-4-yl)-3-(4-(trifluoromethoxy)phenyl)urea]
